Columns and labels:
[1] = tested on: pcb-00197 (human undifferentiated pleomorphic sarcoma culture)
Procedure: (§1)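 60-agent targeted drug screens (Drug Screen V3 on epithelioid sarcoma cultures PCB490-3/4/5, PCB495, EPS cell lines ESX, VA-ES-BJ, FU-EPS-1 and SkMc myoblasts; PPTI screen v2.1 on human UPS PCB197 and canine UPS S1-12). 384-well plates, 72 h, CellTiter-Glo viability; IC50 by Hill curve fit. 10000 nM = no IC50 achieved (top reported value).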

[2] = tested on: s1-12 (canine undifferentiated pleomorphic sarcoma culture)
Procedure: as §1

[3] = tested on: PCB490-3 (human epithelioid sarcoma primary culture)
Procedure: (§2)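 Roche open-access kinase inhibitor screen (223 compounds) on human epithelioid sarcoma primary cultures from three spatially distinct regions of tumor PCB490. 384-well plates, 72 h, CellTiter-Glo viability; IC50 by Hill curve fit. 100000 nM = no IC50 reached. Compound ids carry a plate-well prefix, which is stripped.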

[4] = tested on: PCB490-4 (human epithelioid sarcoma primary culture)
Procedure: as §2

[5] = tested on: PCB490-5 (human epithelioid sarcoma primary culture)
Procedure: as §2

Row | SMILES | IC50 cell viability [1] | IC50 cell viability [2] | IC50 cell viability [3] | IC50 cell viability [4] | IC50 cell viability [5]
1 | CN1CC[C@H](c2c(O)cc(O)c3c(=O)cc(-c4ccccc4Cl)oc23)[C@H](O)C1 [Alvocidib] | 0.26 µM | 10 nM | – | – | –
2 | CCOc1cc2ncc(C#N)c(Nc3ccc(F)c(Cl)c3)c2cc1NC(=O)/C=C/CN(C)C [pelitinib] | > 10 µM | 200 nM | – | – | –
3 | CC(C)(C)c1cnc(CSc2cnc(NC(=O)C3CCNCC3)s2)o1 [SNS-032] | 0.78 µM | 110 nM | – | – | –
4 | CN(C)CC[C@H](CSc1ccccc1)Nc1ccc(S(=O)(=O)NC(=O)c2ccc(N3CCN(Cc4ccccc4-c4ccc(Cl)cc4)CC3)cc2)cc1[N+](=O)[O-] [ABT 737] | > 10 µM | 1060 nM | – | – | –
5 | CCN(CC)CCCC(C)Nc1c2ccc(Cl)cc2nc2ccc(OC)cc12 (stereo not drawn) [quinacrine] | 1.57 µM | 990 nM | – | – | –
6 | Cc1ccc(Nc2nccc(N(C)c3ccc4c(C)n(C)nc4c3)n2)cc1S(N)(=O)=O [pazopanib] | > 10 µM | > 10000 nM | – | – | –
7 | COc1cc(Nc2ncc(F)c(Nc3ccc4c(n3)N(COP(=O)(O)O)C(=O)C(C)(C)O4)n2)cc(OC)c1OC [Fostamatinib] | 4.33 µM | 730 nM | – | – | –
8 | CNC(=O)CN1CCC(Oc2cc3c(Nc4cccc(Cl)c4F)ncnc3cc2OC)CC1 [AZD-8931] | > 10 µM | > 10000 nM | – | – | –
9 | Cc1ccc(C(=O)Nc2ccc(CN3CCN(C)CC3)c(C(F)(F)F)c2)cc1C#Cc1cnc2cccnn12 [ponatinib] | 4.43 µM | 160 nM | – | – | –
10 | CS(=O)(=O)c1ccc(C(=O)Nc2ccc(Cl)c(-c3ccccn3)c2)c(Cl)c1 [vismodegib] | > 10 µM | 2750 nM | – | – | –
11 | CN(c1ncccc1CNc1nc(Nc2ccc3c(c2)CC(=O)N3)ncc1C(F)(F)F)S(C)(=O)=O | 4.56 µM | 1420 nM | – | – | –
12 | COc1cc2c(Oc3ccc4[nH]c(C)cc4c3F)ncnc2cc1OCCCN1CCCC1 [cediranib] | > 10 µM | > 10000 nM | – | – | –
13 | Cc1nc(Nc2ncc(C(=O)Nc3c(C)cccc3Cl)s2)cc(N2CCN(CCO)CC2)n1 [dasatinib] | 0.14 µM | 860 nM | – | – | –
14 | COc1cc2nccc(Oc3ccc(NC(=O)C4(C(=O)Nc5ccc(F)cc5)CC4)cc3)c2cc1OC [Cabozantinib] | > 10 µM | > 10000 nM | – | – | –
15 | COc1cccc(C2=C(c3c(C)n(C)c4ccccc34)C(=O)NC2=O)c1 | – | – | > 100 µM | > 100 µM | > 100 µM
16 | Cn1cc(C2=C(c3cn(CCN)c4ccccc34)C(=O)NC2=O)c2ccccc21 | – | – | > 100 µM | > 100 µM | > 100 µM
17 | Cn1c(=O)c(Oc2ccc(F)cc2)cc2cnc(NC3CCOCC3)nc21 | – | – | > 100 µM | > 100 µM | > 100 µM
18 | CC(=O)N[C@@H](Cc1ccc(OP(=O)(O)O)cc1)C(=O)N[C@H]1CCC(=O)N2CCC[C@@H](C(=O)NCc3ccccc3)N2C1=O | – | – | > 100 µM | > 100 µM | > 100 µM
19 | Cn1cc(C2=C(c3ccsc3)C(=O)NC2=O)c2ccccc21 | – | – | > 100 µM | > 100 µM | > 100 µM
20 | Cn1c(=O)c(Oc2ccc(F)cc2F)cc2cnc(NCC(C)(C)O)nc21 | – | – | > 100 µM | > 100 µM | > 100 µM
21 | Cc1cc(C)c2c(n1)sc1c(N)ncnc12 | – | – | > 100 µM | > 100 µM | > 100 µM
22 | O=C1NC(=NCc2ccccc2Br)S/C1=C\c1ccc2ncccc2c1 | – | – | > 100 µM | > 100 µM | > 100 µM

Row | SMILES | IC50 cell viability [1] | IC50 cell viability [2] | IC50 cell viability [3] | IC50 cell viability [4] | IC50 cell viability [5]
23 | Fc1ccc(-c2c(-c3ccncc3)[nH]c3nccnc23)cc1 | – | – | > 100 µM | > 100 µM | > 100 µM
24 | O=C1NC(=NCc2ccccc2Cl)S/C1=C\c1ccc2ncccc2c1 | – | – | > 100 µM | > 100 µM | > 100 µM
25 | CC(C)(O)CCc1cccc(C(=O)c2cnn(-c3ccc(F)cc3)c2N)c1 | – | – | > 100 µM | > 100 µM | > 100 µM
26 | Cn1cc(C2=C(c3cn(C)c4c(N)cccc34)C(=O)NC2=O)c2ccccc21 | – | – | > 100 µM | > 100 µM | > 100 µM
27 | Cn1c(=O)c(Oc2ccc(F)cc2F)cc2cnc(NC(CO)CO)nc21 | – | – | > 100 µM | 15 µM | 8.58 µM
28 | CS(=O)(=O)N1CCC(n2c(=O)c(Oc3ccc(F)cc3F)cc3cnc(NC4CCOCC4)nc32)CC1 | – | – | > 100 µM | > 100 µM | > 100 µM
29 | COc1cc[nH]c1/C=C1\C(=O)Nc2ccc([N+](=O)[O-])c(N3CC[C@@H](O)C3)c21 | – | – | 4.87 µM | 7.83 µM | 4.71 µM
30 | Cn1cc(C2=C(c3ccc4ccccc4c3)C(=O)NC2=O)c2ccccc21 | – | – | > 100 µM | > 100 µM | > 100 µM
31 | C[C@@H](c1ccccc1)[C@@H](C(=O)Nc1ccc(I)cc1F)N1C(=O)N[C@H](c2ccc(OC[C@H](O)CO)cc2)C1=O | – | – | > 100 µM | > 100 µM | > 100 µM
32 | Nc1c(C(=O)c2cccc(-c3cccnc3)c2)cnn1-c1ccc(F)cc1 | – | – | > 100 µM | > 100 µM | > 100 µM
33 | Cn1cc(C2=C(c3cn(CCCCCO)c4ccccc34)C(=O)NC2=O)c2ccccc21 | – | – | > 100 µM | > 100 µM | > 100 µM
34 | CN(C)CC#Cc1cccc(C(=O)c2cnn(-c3ccc(F)cc3)c2N)c1 | – | – | > 100 µM | > 100 µM | > 100 µM
35 | CC(=O)Nc1ccc2c(C3=C(c4cn(C)c5ccccc45)C(=O)NC3=O)cn(C)c2c1 | – | – | > 100 µM | 1.94 µM | > 100 µM
36 | COc1ccc2c(c1)C(c1ccccc1Cl)=Nc1c(n[nH]c1C)N2 | – | – | > 100 µM | > 100 µM | > 100 µM
37 | O=C1NC(=NCc2ccccc2)S/C1=C\c1ccc2ncccc2c1 | – | – | > 100 µM | > 100 µM | > 100 µM
38 | CON=C1NC(=O)/C(=C/c2ccc3ncccc3c2)S1 | – | – | 6.8 µM | > 100 µM | > 100 µM
39 | Cn1cc(C2=C(c3cn(C)c4ccc(OCc5ccccc5)cc34)C(=O)NC2=O)c2ccccc21 | – | – | > 100 µM | > 100 µM | > 100 µM
40 | CC(=O)N[C@@H](Cc1ccc(OP(=O)(O)O)cc1)C(=O)N[C@H]1CCC(=O)N2CCC[C@@H](C(=O)NCc3ccc(O)cc3)N2C1=O | – | – | > 100 µM | > 100 µM | > 100 µM
41 | O=C1NC(=NCc2cccs2)O/C1=C\c1ccc2ncccc2c1 | – | – | > 100 µM | > 100 µM | > 100 µM
42 | CO/N=C(\c1ccccc1)c1cnn(-c2ccccc2)c1N | – | – | > 100 µM | > 100 µM | > 100 µM
43 | O=C1NC(=NCCc2ccc(Cl)cc2)S/C1=C\c1ccc2ncccc2c1 | – | – | > 100 µM | > 100 µM | > 100 µM
44 | Cn1cc(C2=C(c3cn(C)c4ccc(N)cc34)C(=O)NC2=O)c2ccccc21 | – | – | > 100 µM | > 100 µM | > 100 µM

Reference: the supplement of paper PMC6580486
